Like-named read-outs stand apart in the source and are kept apart here. Bridge positions count the residues as written; N and C are the ends. Ends that are not written are not given here.
Tests used:
[1] = test system: TNF-α; assay: TNF-α ELISA in blood of mice with carrageenan-induced inflammation; format: in vivo, ICR mice; conditions: mouse blood 24 h after carrageenan, indomethacin 5 mg/kg oral
Protocol: Tests were performed on male ICR mice, with six individuals in each group. A peptide sample was dissolved in sterile saline and administered intravenously at doses of 0.1 and 1.0 mg/kg. Control animals received an equivalent volume of sterile saline. Indomethacin at a dose of 5 mg/kg was used as a positive control and administered orally to animals. Each mouse received 20 μL of a 1% solution of carrageenan in the hind paw pad after 30 min in the case of saline and tested peptide and after 60 min in the case of indomethacin. Then, the resulting edema was measured at several time points (1, 3, 5, and 24 h) using a plethysmometer (Ugo Basile, Gemonio (VA), Italy).
Animals were terminally anaesthetized with sodium pentobarbital ([…] i.p., Euthatal, Merial Animal Health, Essex, UK) 24 h after carrageenan injection. Then the thoracic cavity was opened and blood was collected in tubes with the ethylenediaminetetraacetic acid (EDTA) directly from the right atrium of the heart. The whole blood was centrifuged at 2.5 × 10^3× g for 10 min to remove cells; the blood serum was then aliquoted and stored at −20 °C. These samples were analyzed for TNF-α in the enzyme-linked immunosorbent assay (ELISA) using a diagnostic kit according to the manufacturer’s protocol (CUSABIO BIOTECH Co., Ltd., Houston, TX, USA).

[2] = test system: Kv1.2; parameters: key to IC50 Kv1.2 (class symbol): -: no or weak activity; conditions: cited from earlier work
Excerpt: Table 1 Kunitz-type voltage-gated potassium channel toxins from animal venoms. | column: IC50 (nM) / Kv1.2

[3] = test system: Kv1.1; conditions: cited from earlier work
Excerpt: (§1) Kalicludines block Kv1.2 in µM concentratio ...

[4] = test system: Kv1.6; parameters: key to IC50 Kv1.6 (class symbol): -: no or weak activity; conditions: cited from earlier work
Excerpt: Table 1 Kunitz-type voltage-gated potassium channel toxins from animal venoms. | column: IC50 (nM) / Kv1.6

[5] = test system: Kv1.3; parameters: key to IC50 Kv1.3 (class symbol): -: no or weak activity; conditions: cited from earlier work
[6] = test system: trypsin; conditions: cited from earlier work
[7] = test system: Shaker IR; parameters: key to IC50 Shaker IR (class symbol): -: no or weak activity; conditions: cited from earlier work
[8] = test system: crabs; conditions: ref [18]; cited from earlier work
[9] = test system: Kv1.1, Kv1.2, and Kv1.6 channels in rat synaptosomal membranes; conditions: ref [18], cited from earlier work; for IC50: 125I α-DTX dendrotoxin binding to synaptosomal membranes
Excerpt: as §1

[10] = test system: macrophages treated with LPS; conditions: ref [68]; cited from earlier work
Excerpt: Kv1.3 channels have gained a prominent role for their possibility to control neuroinflammatory and autoimmune diseases. Inflammation involves several processes including the activation of inflammatory cells, the secretion of pro-inflammatory cytokines and the release of various inflammatory mediators, leading to symptoms of inflammation such as redness, swelling, fever and pain [67].

## COc1ccc2c(c1)c(CC(=O)O)c(C)n2C(=O)c1ccc(Cl)cc1 [indomethacin]
[1]
  effect on TNF-α synthesis: reduced the synthesis of TNF-α

## APEKTx1: APEKTx1 (P61541) from the sea anemone A. elegantissima (GTTCYCGKTIGIYWFGTKTCPSNRGYTGSCGYFLGICCYPVD; UniProt P61541 1-42, looked up)
[2]; ref [17]
  IC50 Kv1.2 (class symbol): -
[3]; ref [17]
  IC50: 0.9 nM
  Kv1.1 block (in words): selectively blocks Kv1.1 channels
[4]; ref [17]
  IC50 Kv1.6 (class symbol): -
[5]; ref [17]
  IC50 Kv1.3 (class symbol): -
[6]; ref [17]
  trypsin inhibition (in words): effectively inhibiting trypsin
[7]; ref [17]
  IC50 Shaker IR (class symbol): -

## AsKC1: AsKC1 (Q9TWG0) from A. sulcata (INKDCLLPMDVGRCRASHPRYYYNSSSKRCEKFIYGGCRGNANNFHTLEECEKVCGVR; disulfide 14-38, 30-51, 5-55 (inferred); UniProt Q9TWG0 1-58, looked up)
[2]; ref [16]
  IC50: 2800 nM

## AsKC2: AsKC2 (Q9TWF9) from A. sulcata (INKDCLLPMDVGRCRARHPRYYYNSSSRRCEKFIYGGCRGNANNFITKKECEKVCGVR; disulfide 14-38, 30-51, 5-55 (inferred); UniProt Q9TWF9 1-58, looked up)
[2]; ref [16]
  IC50: 1100 nM

## AsKC3: AsKC3 (Q9TWF8) from A. sulcata (INGDCELPKVVGRCRARFPRYYYNLSSRRCEKFIYGGCGGNANNFHTLEECEKVCGVRS; disulfide 14-38, 30-51, 5-55 (inferred); UniProt Q9TWF8 1-59, looked up)
[2]; ref [16]
  IC50: 1300 nM

## DTX-I: DTX1 (P00979) from snake Dendroaspis polylepis (QPLRKLCILHRNPGRCYQKIPAFYYNQKKKQCEGFTWSGCGGNSNRFKTIEECRRTCIRK; UniProt P00979 1-60, looked up)
[2]; ref [48]
  IC50: 0.13 nM
[3]; ref [48]
  IC50: 3.1 nM

## DTX-δ: DTX-δ (P00982) from Dendroaspis angusticeps (AAKYCKLPVRYGPCKKKIPSFYYKWKAKQCLPFDYSGCGGNANRFKTIEECRRTCVG; UniProt P00982 1-57, looked up)
[3]; ref [49]
  IC50: 0.01 nM
[7]; ref [49]
  IC50: 1000 nM

## LmKTT-1a: LmKTT-1a (P0DJ46) from scorpion Lychas mucronatus
[2]; ref [50]
  IC50: > 1000 nM
[3]; ref [50]
  IC50: > 1000 nM
[5]; ref [50]
  IC50: 1580 ± 73 nM

## ShPI-1: ShPI-1 (P31713) from S. helianthus (SICSEPKKVGRCKGYFPRFYFDSETGKCTPFIYGGCGGNGNNFETLHQCRAICRA; UniProt P31713 1-55, looked up)
[2]; ref [19]
  IC50: 9 ± 2 nM
[3]; ref [19]
  IC50: 117 ± 15 nM
[4]; ref [19]
  IC50: 9 ± 2 nM
[5]; ref [19]
  IC50 Kv1.3 (class symbol): -
[7]; ref [19]
  IC50 Shaker IR (class symbol): -

B1: SHTXIII: SHTXIII (B1B5I8) from S. haddoni (protein, UniProt B1B5I8 20-81, looked up)
KappaPI-stichotoxin-Shd2a: TEEMPALCHLQPDVPKCRGYFPRYYYNPEVGKCEQFIYGGCGGNKNNFVSFEACRATCIIPL
[8]
  paralysis of crabs (in words): paralyzes crabs
[9]; column Kv1.1, read-out: IC50 Kv1.1 (125I α-DTX binding)
  IC50: 270 nM
[9]; column Kv1.2, read-out: IC50 Kv1.2 (125I α-DTX binding)
  IC50: 270 nM
[9]; column Kv1.6, read-out: IC50 Kv1.6 (125I α-DTX binding)
  IC50: 270 nM
[9]; rat synaptosomal membranes, at the level of Kv1.1, Kv1.2, and Kv1.6
  competition with the binding of α-DTX (in words): competed with the binding of α-DTX
[6]; ref [18]
  trypsin inhibition (in words): inhibited trypsin

B2: bikunin: a human Kunitz-type peptide (protein, UniProt P02760 206-352, looked up)
Inter-alpha-trypsin inhibitor …: AVLPQEEEGSGGGQLVTEVTKKEDSCQLGYSAGPCMGMTSRYFYNGTSMACETFQYGGCMGNGNNFVTEKECLQTCRTVAACNLPIVRGPCRAFIQLWAFDAVKGKCVLFPYGGCQGNGNKFYSEKECREYCGVPGDGDEELLRFSN
modifications: Inter-alpha-trypsin inhibitor light chain
notes: a human Kunitz-type peptide
[10]
  effect on production of mediators: inhibits the production of thromboxane B2, TNF-α, and IL-8

Source: paper PMC7694175, “Kunitz-Type Peptides from the Sea Anemone Heteractis crispa Demonstrate Potassium Channel Blocking and Anti-Inflammatory Activities” (Biomedicines, 2020)
